From ChEMBL document CHEMBL1136306, “Design and synthesis of a new fluorescent probe for cytochrome P450 3A4 (CYP 3A4)” (Bioorg Med Chem Lett, 2003)

Biological target: Cytochrome P450 3A4 (Homo sapiens, UniProt P08684)
Sequence (P08684 whole entry): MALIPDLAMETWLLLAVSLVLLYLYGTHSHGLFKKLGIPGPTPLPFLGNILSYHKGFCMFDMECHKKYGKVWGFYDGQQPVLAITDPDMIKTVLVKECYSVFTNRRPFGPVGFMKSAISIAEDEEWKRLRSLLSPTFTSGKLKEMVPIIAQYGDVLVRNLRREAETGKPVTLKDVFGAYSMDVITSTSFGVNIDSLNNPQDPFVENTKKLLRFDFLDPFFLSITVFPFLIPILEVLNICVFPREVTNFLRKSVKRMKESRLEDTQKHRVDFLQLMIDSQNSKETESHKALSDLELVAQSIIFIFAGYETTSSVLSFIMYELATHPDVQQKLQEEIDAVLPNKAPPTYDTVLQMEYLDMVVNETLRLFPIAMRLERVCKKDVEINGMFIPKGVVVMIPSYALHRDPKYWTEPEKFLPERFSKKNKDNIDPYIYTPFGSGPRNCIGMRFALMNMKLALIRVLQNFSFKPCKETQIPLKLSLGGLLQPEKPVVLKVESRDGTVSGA

SMILES | IC50 [µM]
OC1N=C(c2ccccc2F)c2cc(Cl)ccc2-n2cncc21 (configuration not stated) | 10
OCc1ncc2n1-c1ccc(Cl)cc1C(c1ccccc1F)=NC2 [ALPHA-HYDROXY-MIDAZOLAM] | 10
